Data: patent publication US4120864A, “1,2,4-4H-triazole derivatives” (Rohm and Haas Company, priority 1972, dated 1978)
Where a name gives a salt, the structure may show the parent alone. Read-outs that look alike come from different tables or passages of the source.

Key:
[1] = tested on: wheat leaf rust, Puccinia recondita; experiment: whole plant or invertebrate; type: in vivo; details: foliar; for pest or weed control at 280.212 g/ha: read-out: % Control (without rain), foliar, 0.25 lb.; for pest or weed control at 1120.85 g/ha: read-out: % Control (without rain), foliar, 1 lb.
[2] = tested on: wheat leaf rust, Puccinia recondita; experiment: whole plant or invertebrate; type: in vivo; details: foliar; for pest or weed control at 280.212 g/ha: read-out: % Control (with 1" of rain), foliar, 0.25 lb., 1" of rain; for pest or weed control at 1120.85 g/ha: read-out: % Control (with 1" of rain), foliar, 1 lb., 1" of rain

Compound | % Control (without rain) ([1]; 0.25 lb.) | % Control (without rain) ([1]; 1 lb.) | % Control (with 1" of rain) ([2]; 0.25 lb.) | % Control (with 1" of rain) ([2]; 1 lb.) | pest or weed control at 280.212 g/ha [1] | pest or weed control at 1120.85 g/ha [1] | pest or weed control at 280.212 g/ha [2] | pest or weed control at 1120.85 g/ha [2]
4-(1,3-dihydroxypropyl)-1,2,4-triazole [Example 22] | 90% | 90% | 0% | 0% |  |  |  | 
c1nncn1C1CC1 [Example 2, 4-cyclopropyl-1,2,4-triazole] |  |  |  |  | 90% | 90% | 40% | 0%
CCC(C)n1cnnc1 (stereo not shown) [Example 5, 4-sec-butyl-1,2,4-triazole] |  |  |  |  | 97% | 99% | 78% | 69%
CC(C)(C)n1cnnc1 [Example 6, 4-t-butyl-1,2,4-triazole] |  |  |  |  | 100% | 100% | 95% | 95%
CCCCCn1cnnc1 [Example 7, 4-n-pentyl-1,2,4-triazole] |  |  |  |  | 100% | 100% | 100% | 100%
CCCCCCCCCCn1cnnc1 [Example 12, 4-n-decyl-1,2,4-triazole] |  |  |  |  | 57% | 100% | 48% | 78%
CC=CCn1cnnc1 [Example 14, 4-(2-butenyl)-1,2,4-triazole] |  |  |  |  | 100% | 100% | 99% | 100%
C#CCn1cnnc1 [Example 15, 4-propargyl-1,2,4-triazole] |  |  |  |  | 100% | 100% | 99% | 100%
C#CC(C)(C)n1cnnc1 [Example 16, 4-(1,1-dimethylpropargyl)-1,2,4-triazole] |  |  |  |  | 0% | 0% | 0% | 0%
OCCn1cnnc1 [Example 17, 4-(2-hydroxyethyl)-1,2,4-triazole] |  |  |  |  | 60% | 5% | 0% | 0%
CCC(O)Cn1cnnc1 (stereo not shown) [Example 19, 4-(2-hydroxybutyl)-1,2,4-triazole] |  |  |  |  | 65% | 65% | 0% | 0%
CC(O)CCn1cnnc1 (stereo not shown) [Example 20, 4-(3-hydroxybutyl)-1,2,4-triazole] |  |  |  |  | 0% | 0% | 0% | 0%
OCCCCn1cnnc1 [Example 21, 4-(4-hydroxybutyl)-1,2,4-triazole] |  |  |  |  | 10% | 10% | 0% | 0%
Clc1ccc(OCCn2cnnc2)cc1 [Example 26] |  |  |  |  | 0% | 10% | 0% | 0%
Clc1ccc(OCCn2cnnc2)c(Cl)c1 [Example 29, 4-(2-(2,4-dichlorophenoxy)ethyl)-1,2,4-triazole] |  |  |  |  | 0% | 20% | 0% | 0%
Clc1ccc(SCCn2cnnc2)cc1 [Example 30, 4-(2-(4-chlorothiophenoxy)ethyl)-1,2,4-triazole] |  |  |  |  | 90% | 95% | 35% | 75%
Clc1ccc(SCCn2cnnc2)cc1Cl [Example 31, 4-(2-(3,4-dichlorothiophenoxy)ethyl)-1,2,4-triazole] |  |  |  |  | 95% | 98% | 45% | 60%
COc1ccc(SCCn2cnnc2)cc1 [Example 32, 4-(2-(4-methoxythiophenoxy)ethyl)-1,2,4-trianzole] |  |  |  |  | 95% | 99% | 30% | 85%
c1ccc(CCn2cnnc2)cc1 [Example 33, 4-phenethyl-1,2,4-triazole] |  |  |  |  | 100% | 100% |  | 
COc1ccc(CCn2cnnc2)cc1 [Example 34, 4-(4-methoxyphenethyl)-1,2,4-triazole] |  |  |  |  | 15% | 25% | 15% | 15%
CCN(CC)CCn1cnnc1 [Example 35] |  |  |  |  | 30% | 40% | 0% | 10%

Compound | % Control (without rain) ([1]; 0.25 lb.) | % Control (without rain) ([1]; 1 lb.) | % Control (with 1" of rain) ([2]; 0.25 lb.) | % Control (with 1" of rain) ([2]; 1 lb.) | pest or weed control at 280.212 g/ha [1] | pest or weed control at 1120.85 g/ha [1] | pest or weed control at 280.212 g/ha [2] | pest or weed control at 1120.85 g/ha [2]
c1nc(CCn2cnnc2)c[nH]1 [Example 36, 4-[2-(4-imidazolyl)]-1,2,4-triazole] |  |  |  |  | 0% | 10% | 0% | 10%
c1nncn1CCCCn1cnnc1 [Example 37, 4-[4-(1,2,4-triazyl)butyl]-1,2,4-triazole] |  |  |  |  | 0% | 0% | 5% | 0%
CCOC(=O)CC(C)n1cnnc1 (stereo not shown) [Example 40, 4-(1-methyl-2-ethoxycarbonylethyl)-1,2,4-triazole] |  |  |  |  | 40% | 40% | 10% | 10%
O=C(O)CCn1cnnc1 [Example 41, 4-(2-carboxyethyl)-1,2,4-triazole] |  |  |  |  | 85% | 90% | 0% | 0%
O=C(O)CCCn1cnnc1 [Example 44, 4-(3-carboxypropyl)-1,2,4-triazole] |  |  |  |  | 20% | 75% | 35% | 5%
CC(C)OCCCn1cnnc1 [Example 48, 4-(3-isopropoxypropyl)-1,2,4-triazole] |  |  |  |  | 0% | 0% | 0% | 0%
COc1ccc(Cn2cnnc2)cc1 [Example 50, 4-(4-methoxybenzyl)-1,2,4-triazole] |  |  |  |  | 100% |  |  | 100%
Clc1ccc(Cn2cnnc2)c(Cl)c1 [Example 52, 4-(2,4-dichlorobenzyl)-1,2,4-triazole] |  |  |  |  | 0% | 20% | 5% | 10%
Clc1ccc(Cn2cnnc2)cc1Cl [Example 53, 4-(3,4-dichloroenzyl)-1,2,4-triazole] |  |  |  |  | 60% | 70% | 10% | 30%
c1ccc(-n2cnnc2)cc1 [Example 54, 4-phenyl-1,2,4-triazole] |  |  |  |  | 75% | 90% | 25% | 85%
Clc1cccc(-n2cnnc2)c1 [Example 55, 4-(3-chlorophenyl)-1,2,4-triazole hydrochloride] |  |  |  |  | 100% | 100% |  | 
Clc1ccc(-n2cnnc2)c(Cl)c1 [Example 56, 4-(2,4-dichlorophenyl)-1,2,4-triazole] |  |  |  |  | 90% | 65% | 0% | 5%
O=[N+]([O-])c1cccc(-n2cnnc2)c1 [Example 58, 4-(3-nitrophenyl)-1,2,4-triazole] |  |  |  |  | 80% | 80% | 0% | 0%
O=[N+]([O-])c1ccc(-n2cnnc2)cc1 [Example 59, 4-(4-nitrophenyl)-1,2,4-triazole] |  |  |  |  | 97% | 98% | 58% | 79%
COc1ccc(-n2cnnc2)cc1 [Example 60, 4-(4-methoxyphenyl)-1,2,4-triazole] |  |  |  |  | 100% | 100% | 95% | 97%
c1cc(-n2cnnc2)ccn1 [Example 61, 4-(4-pyridyl)-1,2,4-triazole] |  |  |  |  | 10% | 10% | 0% | 0%
c1ccc(-n2cnnc2)nc1 [Example 62, 4-(2-pyridyl)-1,2,4-triazole] |  |  |  |  | 100% | 100% |  | 99%
c1nncn1N1CCOCC1 [Example 64, 4-morpholino-1,2,4-triazole] |  |  |  |  | 88% | 94% |  | 
c1nncn1-n1cnnc1 [Example 65] |  |  |  |  | 64% | 78% |  | 
O=C(Sc1nncn1-c1ccccc1)c1cccc([N+](=O)[O-])c1 [Example 130, 3-(3-nitrobenzoylmercapto)-4-phenyl-1,2,4-triazole] |  |  |  |  | 97% | 100% |  | 
